Laboratory results: publication PMC12147183, “Lacritin cleavage-potentiated targeting of iron - respiratory reciprocity promotes bacterial death” (The Journal of Biological Chemistry, 2025)
Peptide text beside a SMILES is read from it.

Experiments:
[1] = test system: Keio E. coli K-12 single gene knockout strains; test: Forward genetic N-104 resistance screen of Keio single gene knockouts; type: cell-based, Escherichia coli; details: 100 μM N-104, slope 5 h after/5 h before; resistance cutoff 0.75
Description: We took advantage of the Alamar Blue viability assay ([85]). Briefly, wells of deep 96-well plates (1896–2000, USA Scientific) each containing 0.8 ml of LB broth supplemented with 50 μg/ml of kanamycin (BP906–5, Fisher Scientific) were singly inoculated with 10 μl aliquots of each of the 3884 Keio E. coli K-12 single gene knockout strains for 16 h at 37 °C on a rotator (160 rpm). A total of 200 μl of a 1:1000 dilution of each (∼10^6 cfu/ml) in 1 mM Na2HPO4, 0.18 mM KH2PO4, 0.27 mM KCl, 13.7 mM NaCl (pH 7.2) containing 10% Alamar Blue (DAL1100, Invitrogen) in wells of black 96-well plates was monitored hourly for 5 h in a SpectraMax M3 plate reader (Molecular Devices) with 3 s agitation before simultaneously reading from the well bottoms at medium PMT voltage with a 590 nm cutoff filter and six flashes per read for the Alamar Blue fluorescence signal (excitation/detection = 560/590 nm). The same hourly monitoring continued for 30 h after the addition of N-104, N-80/C-25 (negative control), or ampicillin (positive control; BP1760–5; Fisher Scientific) at a final concentration of 100 μM each. Data for each of the 3,884 strains were normalized to untreated with 10% Alamar Blue background subtracted as the ratio of the viability slope during the first 5 hours of N-104 treatment versus the slope 5 h previous.

[2] = Surface plasmon resonance on chip-supported Gram-negative model membrane

CC(=O)N[C@@H](C)C(=O)N[C@@H](CCC(N)=O)C(=O)N[C@@H](CCCCN)C(=O)N[C@@H](CC(C)C)C(=O)N[C@@H](CC(C)C)C(=O)N[C@@H](CCCCN)C(=O)N[C@@H](CCCCN)C(=O)N[C@@H](Cc1ccccc1)C(=O)N[C@@H](CO)C(=O)N[C@@H](CC(C)C)C(=O)N[C@@H](CC(C)C)C(=O)N[C@@H](CCCCN)C(=O)N1CCC[C@H]1C(=O)N[C@@H](Cc1c[nH]c2ccccc12)C(=O)N[C@@H](C)C(=O)O [N-104] (Ac-AQKLLKKFSLLKPWA-OH)
treated:untreated metabolic slope ratio, ΔSbmA E. coli [1]: 0.69 | treated:untreated metabolic slope ratio, ΔYaiW E. coli [1]: 0.70 | membrane lysis or disruption concluded from SPR ([2]; 2-25 μM N-104, PC:PG:PE and PC:PG membranes): not membrane lytic nor substantially membrane disruptive | SPR response after buffer wash versus baseline ([2]; highest N-104 concentration (25 μM), flow 30 μl/min, 600 s, n = 4): remained slightly elevated over baseline
